# Results from patent US20020165236A1, “Compounds for the treatment of protozoal diseases” (priority 2001, published 2002).
# Tested on: multiresistant Dd2 strain of Plasmodium falciparum
# Assay: antiplasmodial action, [8-3H]hypoxanthine incorporation, Dd2 strain
# Assay type: cell-based
# Settings: read-out: in vitro antiplasmodial activity (IC50 value class)
# Protocol: For the determination of the antiplasmodial action of the compounds, the multiresistant Dd2 strain of Plasmodium falciparum was used. The incorporation of [8-^3H]hypoxanthine into the parasitic nucleic acids was measured. The plasmodia were incubated at 0.3% parasitaemia and an erythrocyte haematocrit of 2.5% in the presence of different concentrations of the compounds in a final volume of 200-μl. The medium employed was RPMI 1640 which contained 10% of heat-treated human serum and 3 mg/l of gentamycin. in the incubations, the concentrations of the compounds varied from 0.3 to 100 μM. After 48 h, each batch was treated with 50 µl of […] (1 mCi/ml) and incubated for a further 18 h. The cells were filtered off, washed and suspended in 20 μl of scintillation fluid. The radioactive hypoxanthine absorbed by the parasites was then quantified using a scintillation counter.
# The results were presented graphically and the IC50 value was determined using a fitting function. The value IC50, the ‘inhibition constant’, indicates the value in μMol/1 at which 50% inhibition occurs.
row,IC50,Structure (SMILES)
1,1000 to 10000 nM,CSc1ccc(NC(=O)Nc2cccc(C(=N)NN)c2)cc1 [Compound 1]
2,1000 to 10000 nM,N=C(N)c1ccc(NC(=O)Nc2cccc(C(F)(F)F)c2)cc1 [Compound 2]
3,1000 to 10000 nM,N=C(N)c1cccc(NC(=O)Nc2ccccc2Br)c1 [Compound 3]
4,1000 to 10000 nM,N#Cc1ccccc1NC(=O)Nc1cccc(C(=N)N)c1 [Compound 4]
5,10000 to 100000 nM,CS(=O)(=O)c1ccc2nc(NC(=O)Nc3cccc(C(=N)N)c3)sc2c1 [Compound 6]
6,1000 to 10000 nM,CSc1ccc(NC(=O)Nc2cccc(C(=N)N)c2)cc1 [Compound 7]
7,1000 to 10000 nM,N=C(N)c1cccc(NC(=O)Nc2ccc(C(F)(F)F)cc2)c1 [Compound 8]
8,< 1000 nM,N=C(N)c1cccc(NC(=O)Nc2ccc(Cl)c(C(F)(F)F)c2)c1 [Compound 9]
9,1000 to 10000 nM,N=C(N)c1cccc(NC(=O)Nc2ccc(C(F)(F)F)cc2Br)c1 [Compound 11]
10,1000 to 10000 nM,COC(=O)c1cc(NC(=O)Nc2cccc(C(=N)N)c2)cc(C(F)(F)F)c1 [Compound 12]
11,1000 to 10000 nM,N=C(N)c1cccc(NC(=O)Nc2ccc(Br)cc2Br)c1 [Compound 14]
12,1000 to 10000 nM,COC(=O)c1cc(NC(=O)Nc2ccc(C(=N)N)cc2)cc(C(F)(F)F)c1 [Compound 16]
13,10000 to 100000 nM,CN1C(=O)c2ccc(NC(=O)Nc3cccc(C(=N)N)c3)cc2C1=O [Compound 17]
14,1000 to 10000 nM,N=C(N)c1cccc(NC(=O)Nc2ccc(S(=O)(=O)N3CCc4ccccc4C3)cc2)c1 [Compound 20]
15,1000 to 10000 nM,CCCCNS(=O)(=O)c1ccc(NC(=O)Nc2cccc(C(=N)N)c2)cc1 [Compound 21]
16,10000 to 100000 nM,N=C(N)c1cccc(NC(=O)Nc2ccc(S(=O)(=O)NC3C4CC5CC(C4)CC3C5)cc2)c1 (stereo not drawn) [Compound 22]
17,< 1000 nM,"N=C(N)c1cccc(NC(=O)Nc2ccc(S(=O)(=O)NC(c3ccccc3)c3ccccc3)cc2)c1 [Compound 23, 3-{3-[4-(benzhydrylsulfamoyl)-phenyl]-ureido}-benzamidine]"
18,1000 to 10000 nM,N=C(N)c1cccc(NC(=O)Nc2ccc(S(=O)(=O)Nc3ccccc3)cc2)c1 [Compound 26]
19,1000 to 10000 nM,N=C(N)c1cccc(NC(=O)Nc2ccc(S(=O)(=O)Nc3ccc(-c4ccc(N)cc4[N+](=O)[O-])cc3)cc2)c1 [Compound 27]
20,1000 to 10000 nM,N=C(N)c1cccc(NC(=O)Nc2ccc(S(N)(=O)=O)cc2[N+](=O)[O-])c1 [Compound 28]
21,1000 to 10000 nM,N=C(N)c1cccc(NC(=O)Nc2ccc(S(=O)(=O)Nc3ccc4cccnc4c3)cc2)c1 [Compound 29]
22,1000 to 10000 nM,N=C(N)c1cccc(NC(=O)Nc2ccc(S(N)(=O)=O)cc2)c1 [Compound 30]
23,1000 to 10000 nM,N=C(N)c1cccc(NC(=O)Nc2ccc(NS(=O)(=O)c3ccccc3)c(O)c2)c1 [Compound 31]

row,IC50,Structure (SMILES)
1,10000 to 100000 nM,Cc1ccc(S(=O)(=O)Nc2cccc(NC(=O)Nc3cccc(C(=N)N)c3)c2)cc1 [Compound 32]
2,< 1000 nM,"N=C(N)c1cccc(NC(=O)Nc2ccc(S(=O)(=O)NCc3ccccc3)cc2)c1 [Compound 33, 3-[3-(4-Benzylsulfamoyl-phenyl)-ureido]-benzamidine]"
3,< 1000 nM,"N=C(N)c1cccc(NC(=O)Nc2ccc(S(=O)(=O)NCc3ccc(S(N)(=O)=O)cc3)cc2)c1 [Compound 35, 3-{3-[4-(4-sulfamoyl-benzylsulfamoyl)-phenyl]-ureido}-benzamidine]"
4,< 1000 nM,N=C(N)c1cccc(NC(=O)Nc2ccc(S(=O)(=O)NCc3cccc(F)c3)cc2)c1 [Compound 36]
5,< 1000 nM,"N=C(N)c1cccc(NC(=O)Nc2ccc(S(=O)(=O)NCc3cccc(C(F)(F)F)c3)cc2)c1 [Compound 37, 3-{3-[4-(3-trifluoromethyl-benzylsulfamoyl)-phenyl]-ureido}-benzamidine]"
6,< 1000 nM,N=C(N)c1cccc(NC(=O)Nc2ccc(S(=O)(=O)NCc3ccc(C(F)(F)F)cc3)cc2)c1 [Compound 38]
7,< 1000 nM,N=C(N)c1cccc(NC(=O)Nc2ccc(S(=O)(=O)NCc3ccc(F)cc3)cc2)c1 [Compound 39]
8,< 1000 nM,N=C(N)c1cccc(NC(=O)Nc2ccc(S(=O)(=O)NCc3ccccc3F)cc2)c1 [Compound 40]
9,1000 to 10000 nM,N=C(N)c1cccc(NC(=O)Nc2ccc(S(=O)(=O)NCc3cc(F)c(F)cc3F)cc2)c1 [Compound 41]
10,< 1000 nM,N=C(N)c1cccc(NC(=O)Nc2ccc(S(=O)(=O)NCc3cc(F)ccc3F)cc2)c1 [Compound 42]
11,1000 to 10000 nM,N=C(N)c1cccc(NC(=O)Nc2ccc(S(=O)(=O)NCc3ccc(F)cc3F)cc2)c1 [Compound 43]
12,1000 to 10000 nM,N=C(N)c1cccc(NC(=O)Nc2ccc(S(=O)(=O)NCc3ccc(F)c(F)c3)cc2)c1 [Compound 44]
13,< 1000 nM,N=C(N)c1cccc(NC(=O)Nc2ccc(S(=O)(=O)NCc3c(F)cccc3F)cc2)c1 [Compound 45]
14,1000 to 10000 nM,N=C(N)c1cccc(NC(=O)Nc2ccc(S(=O)(=O)NCc3cc(F)cc(C(F)(F)F)c3)cc2)c1 [Compound 46]
15,< 1000 nM,"N=C(N)c1cccc(NC(=O)Nc2ccc(S(=O)(=O)NCc3c(F)ccc(F)c3F)cc2)c1 [Compound 47, 3-{3-[4-(2,3,6-trifluorobenzylsulfamoyl)-phenyl]-ureido}-benzamidine]"
16,1000 to 10000 nM,CC(NS(=O)(=O)c1ccc(NC(=O)Nc2cccc(C(=N)N)c2)cc1)c1ccc(F)cc1 (stereo not drawn) [Compound 48]
17,1000 to 10000 nM,N=C(N)c1cccc(NC(=O)Nc2ccc(S(=O)(=O)NCc3cccc(OC(F)(F)F)c3)cc2)c1 [Compound 49]
18,< 1000 nM,"N=C(N)c1ccc(NC(=O)Nc2ccc(S(=O)(=O)NCc3ccc(S(N)(=O)=O)cc3)cc2)cc1 [Compound 51, 4-{3-[4-(4-sulfamoylbenzylsulfamoyl)-phenyl]-ureido}-benzamidine]"
19,< 1000 nM,N=C(N)c1ccc(NC(=O)Nc2ccc(S(=O)(=O)NCc3cccc(F)c3)cc2)cc1 [Compound 52]
20,< 1000 nM,N=C(N)c1ccc(NC(=O)Nc2ccc(S(=O)(=O)NCc3ccc(F)cc3)cc2)cc1 [Compound 53]
21,< 1000 nM,N=C(N)c1ccc(NC(=O)Nc2ccc(S(=O)(=O)NCc3c(F)cccc3F)cc2)cc1 [Compound 54]
22,< 1000 nM,N=C(N)c1ccc(NC(=O)Nc2ccc(S(=O)(=O)NCc3ccc(F)cc3F)cc2)cc1 [Compound 55]
23,< 1000 nM,N=C(N)c1ccc(NC(=O)Nc2ccc(S(=O)(=O)NCc3c(F)ccc(F)c3F)cc2)cc1 [Compound 56]

row,IC50,Structure (SMILES)
1,1000 to 10000 nM,N=C(N)c1cccc(NC(=O)Nc2cccc(S(=O)(=O)NCc3cccc(F)c3)c2)c1 [Compound 57]
2,1000 to 10000 nM,N=C(N)c1cccc(NC(=O)Nc2cccc(S(=O)(=O)NCc3ccc(S(N)(=O)=O)cc3)c2)c1 [Compound 58]
3,< 1000 nM,N=C(N)c1cccc(NC(=O)Nc2ccc(S(=O)(=O)NCc3ccc([N+](=O)[O-])cc3)cc2)c1 [Compound 59]
4,1000 to 10000 nM,N=C(N)c1cccc(NC(=O)Nc2ccc(S(=O)(=O)NNC(=O)c3ccc(-c4ccccc4)cc3)cc2)c1 [Compound 60]
5,< 1000 nM,"N=C(N)c1cccc(NC(=O)Nc2ccc(S(=O)(=O)c3ccc([N+](=O)[O-])cc3)cc2)c1 [Compound 63, 3-{3-[4-(4-nitrobenzenesulfonyl)-phenyl]-ureido}-benzamidine]"
6,1000 to 10000 nM,N=C(N)c1cccc(NC(=O)Nc2ccc(S(=O)(=O)c3ccc(NCCO)cc3)cc2)c1 [Compound 65]
7,1000 to 10000 nM,CC(=O)Nc1cccc(NC(=O)Nc2cccc(C(=N)N)c2)c1 [Compound 66]
8,1000 to 10000 nM,COc1ccccc1C(=O)Nc1cccc(NC(=O)Nc2cccc(C(=N)N)c2)c1 [Compound 68]
9,< 1000 nM,COc1ccc(C(=O)Nc2cccc(NC(=O)Nc3cccc(C(=N)N)c3)c2)cc1 [Compound 69]
10,1000 to 10000 nM,N=C(N)c1cccc(NC(=O)Nc2cccc(NC(=O)c3ccc(-c4ccccc4)cc3)c2)c1 [Compound 70]
11,1000 to 10000 nM,Cc1cc(-c2onc(C)c2C(=O)Nc2ccc(NC(=O)Nc3cccc(C(=N)N)c3)cc2)no1 [Compound 71]
12,1000 to 10000 nM,N=C(N)c1cccc(NC(=O)Nc2cccc(C(=O)NC(c3ccccc3)c3ccccc3)c2)c1 [Compound 72]
13,1000 to 10000 nM,"N=C(N)c1cccc(NC(=O)Nc2ccc(C(=O)NCc3ccc(S(N)(=O)=O)cc3)cc2)c1 [Compound 73, 4-[3-(3-carbamimidoylphenyl)-ureido]-N-(4-sulfamoylbenzyl)-benzamide]"
14,< 1000 nM,N=C(N)c1cccc(NC(=S)Nc2ccc(S(=O)(=O)NCc3ccc(C(F)(F)F)cc3)cc2)c1 [Compound 74]
15,< 1000 nM,N=C(N)c1cccc(NC(=S)Nc2ccc(S(=O)(=O)NCc3cccc(F)c3)cc2)c1 [Compound 75]
16,< 1000 nM,N=C(N)c1cccc(NC(=S)Nc2ccc3c(c2)S(=O)(=O)C=C3)c1 [Compound 76]
17,1000 to 10000 nM,N=C(N)c1cccc(NC(=S)Nc2ccc(S(=O)(=O)c3ccc(NCCO)cc3)cc2)c1 [Compound 77]
18,< 1000 nM,N=C(N)c1cccc(NC(=S)Nc2ccc(S(=O)(=O)NCc3cccc(C(F)(F)F)c3)cc2)c1 [Compound 78]
19,< 1000 nM,COC(=O)c1cc(NC(=S)Nc2cccc(C(=N)N)c2)cc(C(F)(F)F)c1 [Compound 79]
20,< 1000 nM,CCN(CC)C(=O)c1cccc(NC(=S)Nc2cccc(C(=N)N)c2)c1 [Compound 80]
21,1000 to 10000 nM,CN(C)CCNC(=N)c1cccc(NC(=O)Nc2ccc(S(=O)(=O)c3ccc([N+](=O)[O-])cc3)cc2)c1 [Compound 81]
22,< 1000 nM,N=C(Nc1cccnc1)c1cccc(NC(=O)Nc2ccc(S(=O)(=O)c3ccc([N+](=O)[O-])cc3)cc2)c1 [Compound 82]
23,1000 to 10000 nM,N=C(NCCN1CCCC1)c1cccc(NC(=O)Nc2ccc(S(=O)(=O)c3ccc([N+](=O)[O-])cc3)cc2)c1 [Compound 83]
